Measurements from patent US10329243B2, “Biphenyl derivative and uses thereof” (XI'AN LIBANG PHARMACEUTICAL CO., LTD, priority 2015, dated 2019).
Like-named read-outs stand apart in the source and are kept apart here.

What was measured:
Type in all cases: in vivo, SD rats
[1] = system: rats with cerebral ischemic reperfusion injury
Method: 336 healthy male SD rats weighing 250-300 g, provided by the Experimental Animal Center of the Fourth Military Medical University, were randomly divided into 14 groups: the sham operation group, the ischemic reperfusion group, and Examples 1-12 groups (i.e., the Example groups).
(§1) Rats were intraperitoneally injected with 10% chloral hydrate 350 mg/kg after anesthesia and opened up at the center of the neck in accordance with the Zea Longa modified method. The right common carotid artery was separated, and the right external carotid artery branches was ligated. A small opening was made at the distal end of the external carotid artery, and a previously prepared thread was inserted through the common carotid artery and the external carotid artery bifurcation into the internal carotid artery, till the anterior end of the middle cerebral artery, with an immersed depth of 18 to 19 mm. The thread was then secured, and the wound was sutured layer by layer. After the operation, the rats were placed in a clean incubator to wake up. […] The sham operation group, the ischemic reperfusion group, and the Example groups were prepared strictly according to the requirements of the cerebral ischemic reperfusion model, while in the sham operation group the thread was put only into the external carotid artery. The animals were allowed to eat and drink freely after waking up. After 2 h, the thread was pulled out to achieve reperfusion. The sham operation group, the ischemic reperfusion group, and the Example groups were administered intravenously the aqueous solution of the biphenyl derivatives in PEG400 at 40 mg/kg (40 mg/kg means that 40 mg of the test compound per kg of the body weight of rats) 30 min before reperfusion and 12 h after reperfusion, respectively. The sham operation group and the ischemic reperfusion group were injected with the same amount of blank PEG400 aqueous solution at the same time point.
The neurological impairment was scored in each group 24 h after reperfusion. The scoring was in accordance with the Longa 5-grade method: grade 0: no nerve injury symptom; grade 1: inability of stretching the contralateral forepaw; grade 2: circling to the opposite side; grade 3: tumbling to the opposite side; grade 4: no autonomous activity with loss of consciousness.

Fas = Fas determination (immunohistochemical method), cerebral ischemic reperfusion MCAO model
Method: as §1
(§2) 24 hours after reperfusion, 8 rats in each group were sacrificed by decapitation, the brain was removed, rinsed with PBS (pH 7.4) at −20° i for 20 min, evenly sliced (with a thickness of 2 mm), stained in a 2% TTC solution at 37°% in the dark for 30 min, fixed in 10% formalin for 24 h, and photographs were taken to analyze the infarct volume. A mixture of femoral arterial and venous blood was drawn from another 8 rats in each group under anesthesia, placed in a low temperature centrifuge at 4° C., centrifuged at 3500 r/min for 20 min, and the supernatant was stored in a refrigerator at −20° C. ready for SOD and MDA detection. After the blood was drawn, a perfusion needle was insert through the apex to the ascending aorta, and saline at 4° C. was rapid infused until the effluent became clear, followed by 4% paraformaldehyde phosphate buffer perfusion for fixation; the brain was removed by craniotomy, and brain tissues 2 mm in front of and behind the optic chiasma were taken and fixed, dehydrated, rendered transparent, impregnated in wax, and embedded. Brain continuous coronary tissue pathological sections were consecutively cut for later use. The remaining 8 rats in each group were sacrificed, brains were removed, the ischemic brain hemispheres were immediately taken on an ice tray, and 10% brain tissue homogenate was prepared for the detection of IL-1β and TNF-α.
The immunohistochemical method was used for determination. Brain tissue paraffin sections were dewaxed into water, washed with 3% H2O2 to eliminate endogenous peroxidase activity, and rinsed with distilled water for 3 times. Sodium citrate buffer was used for antigen heat repairing, and blocking with calf serum was carried out at room temperature for 15 min; a rabbit anti-mouse Fas antibody was added dropwise, allowed to stand at 4°t overnight, biotinylated goat anti-rabbit IgG was added dropwise, and heated in a water bath at 37°a for 20 min. Washing with PBS for 5 min was continuously repeated 4 times, followed by staining with DAB and sufficient washing without counterstaining. The sections were then gradient dehydrated with alcohol, made transparent with toluene, sealed and fixed. Images were captured by a video camera under high-power optical microscope and inputted into the image analysis system for image analysis. […]

[2] = system: rats with permanent cerebral ischemia injury; test: Relative infarct volume (TTC, imageJ), permanent cerebral ischemia model; details: for Relative Brain infarction volume (%): 40 mg/kg intravenously 30 min before insertion of thread and 12 h after embolism, 24 h after the embolism
Method: as §1, with “the permanent cerebral ischemia model” for “the ischemic reperfusion”, “up.” for “up. After 2 h, the thread was pulled out to achieve reperfusion.”, “before insertion of thread” for “before reperfusion”, “after embolism,” for “after reperfusion,”
as §2, with “the embolism,” for “reperfusion,”, “−20°i” for “−20° i”
The infarct area in each brain section was analyzed and quantified by the imageJ image software, and the ratio of cerebral infarction volume in the overall brain volume was calculated.

[3] = ischemic reperfusion MCAO rats, 40 mg/kg intravenously 30 min before and 12 h after reperfusion, scored 24 h after reperfusion, Longa grade 0-4
[4] = ischemic reperfusion MCAO rats, 40 mg/kg intravenously, brain sections 24 h after reperfusion, gray scale inversely proportional to positive expression

Compound	Average score of neurological impairment [1, 3]	Fas average gray scale (Fas; [4])	Relative Brain infarction volume (%) [2] [%]	also measured
3,3′,5,5′-tetraisopropylbiphenyl-4,4′-bis(oxymethylene phosphate) [Example 3 group]	2.4	–	–	Fas average gray scale (Fas; rat, in vivo, iv, 40 mg/kg): 144.56 ± 6.32
CC1=NN(c2ccccc2)C(=O)C1 [Edaravone injection, edaravone, reference compound]	–	–	–	Fas average gray scale (Fas; ischemic reperfusion rat model, edaravone 3 mg/kg): 139.65 ± 2.05; Brain relative infarct volume (%) ([2]; edaravone 3 mg/kg): 31.29 ± 4.02 %
CC(=O)Oc1c(C(C)C)cc(-c2cc(C(C)C)c(O)c(C(C)C)c2)cc1C(C)C [Example 1 group, 4′-hydroxy-3,3′,5,5′-tetraisopropylbiphenyl-4-acetate]	2.0	–	–	Relative Brain infarction volume (%) ([2]; 40 mg/kg): 24.71 ± 3.76 %
CC(=O)Oc1c(C(C)C)cc(-c2cc(C(C)C)c(OC(C)=O)c(C(C)C)c2)cc1C(C)C [Example 2 group, 3,3′,5,5′-tetraisopropylbiphenyl-4′-diacetate]	2.1	148.36 ± 5.33	27.92 ± 4.51	–
CC(C)c1cc(-c2cc(C(C)C)c(OC(=O)CCC(=O)O)c(C(C)C)c2)cc(C(C)C)c1O [Example 5 group, [4-(4′-hydroxy-3,3′,5,5′-tetraisopropylbiphenyl)oxy]-4-carbonyl butyric acid]	2.2	148.02 ± 4.16	28.37 ± 5.02	–
CCCc1cc(-c2cc(CCC)c(O)c(C(C)C)c2)cc(C(C)C)c1O [Example 6 group, 4,4′-dihydroxy-3,3′-diisopropyl-5,5′-dipropylbiphenyl]	2.0	155.33 ± 3.78	22.53 ± 4.62	–
CCCc1cc(-c2cc(CCC)c(O)c(CCC)c2)cc(CCC)c1O [Example 7 group, 4,4′-dihydroxy-3,3′,5,5′-tetrapropylbiphenyl]	2.1	157.26 ± 4.05	21.39 ± 4.01	–
CC(C)c1cc(-c2cc(C(C)C)c(C(=O)O)c(C(C)C)c2)cc(C(C)C)c1O [Example 8 group, 4′-hydroxy-3,3′,5,5′-tetraisopropylbiphenyl-4-carboxylic acid]	2.3	148.82 ± 7.62	29.74 ± 3.13	–
CC(C)c1cc(-c2cc(C(C)C)c(Cl)c(C(C)C)c2)cc(C(C)C)c1O [Example 9 group, 4-chloro-4′-hydroxy-3,3′,5,5′-tetraisopropylbiphenyl]	–	–	–	Average score of neurological impairment ([1]; rat, in vivo, iv, 40 mg/kg): 2.4; Fas average gray scale (Fas; rat, in vivo, iv, 40 mg/kg): 147.11 ± 5.61
CC(C)c1cc(-c2cc(C(C)C)c(OC=O)c(C(C)C)c2)cc(C(C)C)c1O [Example 10 group]	2.2	145.06 ± 4.08	26.46 ± 4.52	–
CC(C)c1cc(-c2cc(C(C)C)c(OC(=O)C(N)C(C)C)c(C(C)C)c2)cc(C(C)C)c1O (centres unmarked) [Example 11 group, 4′-hydroxy-3,3′,5,5′-tetraisopropylbiphenyl-2-amino-3-methylbutyrate]	2.2	152.12 ± 6.17	28.98 ± 5.24	–
CC(=O)OC(C)Oc1c(C(C)C)cc(-c2cc(C(C)C)c(O)c(C(C)C)c2)cc1C(C)C (centres unmarked) [Example 12 group, Ethyl 1-(4′-hydroxy-3,3′,5,5′-tetraisopropylbiphenyl-4-oxo)acetate]	2.4	144.26 ± 3.47	31.79 ± 5.94	–
